These compounds were tested against Ba/F3(EGFR^Del19/T790M/C797S) cells (Homo sapiens, UniProt P00533, DEL746-750/T790M/C797S, cells depend on it) (assay: Assay of activity on Ba/F3 cells (CTG, 72 h)). Settings: read-out: IC50 (nM) Ba/F3 (EGFR^Del19/T790M/C797S).
Format: cell-based
Protocol: (2) A compound stock solution was prepared, and then diluted 3× to obtain a compound dilution. 30 nL of the compound dilution was added to a 384-well plate by Echo (Labcyte, Echo550). The cells were incubated in an incubator at 37° C. and 5% CO2 for 72 h.
The percent inhibition rate (% inhibition) was calculated by the following formula
LUMcmpd: Luminescence value of assay compound.
LUMpositive: Average LUM value of positive drug at a concentration of 10 μM.
LUMvehicle. Average LUM value of negative control group without drug treatment.
The nonlinear regression curve (dose response-variable slope) between the value of inhibition rate (%) and the logarithm of compound concentration was fitted with graphpad prism 8.0, the effect dose curve of compound was drawn, and the IC50 value was calculated.
Y=Bottom+(Top−Bottom)/(1+1^((LogIC50−X)*HillSlope))
X-axis: logarithm of compound concentration; Y axis: inhibition rate ([…]).

Ba/F3(EGFR^Del19/T790M/C797S) cells, sequence (P00533 with tags, fused parts or gaps DEL746-750/T790M/C797S): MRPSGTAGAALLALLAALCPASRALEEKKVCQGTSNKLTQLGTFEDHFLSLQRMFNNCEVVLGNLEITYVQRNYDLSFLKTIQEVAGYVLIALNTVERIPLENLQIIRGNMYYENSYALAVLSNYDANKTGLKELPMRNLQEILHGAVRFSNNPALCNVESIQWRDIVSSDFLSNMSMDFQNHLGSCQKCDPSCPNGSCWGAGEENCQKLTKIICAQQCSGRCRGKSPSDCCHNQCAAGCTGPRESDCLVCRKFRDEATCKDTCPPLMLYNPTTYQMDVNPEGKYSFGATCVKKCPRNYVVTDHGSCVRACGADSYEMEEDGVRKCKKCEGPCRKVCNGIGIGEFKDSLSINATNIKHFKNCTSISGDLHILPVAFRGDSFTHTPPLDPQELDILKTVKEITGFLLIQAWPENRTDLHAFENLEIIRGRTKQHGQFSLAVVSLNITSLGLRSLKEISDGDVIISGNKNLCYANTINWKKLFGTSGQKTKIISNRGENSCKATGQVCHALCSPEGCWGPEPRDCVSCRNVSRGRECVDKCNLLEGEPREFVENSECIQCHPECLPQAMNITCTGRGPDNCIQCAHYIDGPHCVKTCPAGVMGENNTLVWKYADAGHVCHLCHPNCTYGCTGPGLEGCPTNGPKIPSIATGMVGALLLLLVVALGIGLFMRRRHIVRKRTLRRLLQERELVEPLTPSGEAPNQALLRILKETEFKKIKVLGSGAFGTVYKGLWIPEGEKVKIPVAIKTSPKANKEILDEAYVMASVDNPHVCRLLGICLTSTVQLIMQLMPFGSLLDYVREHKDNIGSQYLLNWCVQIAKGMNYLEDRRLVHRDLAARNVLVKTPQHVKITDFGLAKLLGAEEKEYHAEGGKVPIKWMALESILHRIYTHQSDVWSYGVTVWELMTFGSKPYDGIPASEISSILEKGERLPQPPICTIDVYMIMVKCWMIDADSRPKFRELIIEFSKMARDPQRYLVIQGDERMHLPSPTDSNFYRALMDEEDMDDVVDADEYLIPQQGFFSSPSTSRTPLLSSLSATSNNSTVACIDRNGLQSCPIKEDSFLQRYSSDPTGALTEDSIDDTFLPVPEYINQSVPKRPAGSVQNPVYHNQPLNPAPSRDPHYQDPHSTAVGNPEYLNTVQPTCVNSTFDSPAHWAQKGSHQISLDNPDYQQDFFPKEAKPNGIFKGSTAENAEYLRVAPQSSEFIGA

GI50, 1 to 100 nM:
COc1cc(N2CCC(N3CCN(CCCC#Cc4ccc5c(c4)CN(C4CCC(=O)NC4=O)C5=O)CC3)CC2)ccc1Nc1ncc(Cl)c(Nc2ccccc2P(C)(C)=O)n1 (centres unmarked) [Compound C218, 3-(5-(5-(4-(1-(4-((5-chloro-4-((2-(dimethylphosphoryl)phenyl)amino)pyrimidin-2-yl)amino)-3-methoxyphenyl)piperidin-4-yl)piperazin-1-yl)pent-1-yn-1-yl)-1-oxoisoindolin-2-yl)piperidine-2,6-dione]
COc1cc(N2CCC(N3CCN(CCCC#Cc4cccc5c4CN(C4CCC(=O)NC4=O)C5=O)CC3)CC2)c(C)cc1Nc1ncc(Br)c(Nc2ccc3nccnc3c2P(C)(C)=O)n1 (centres unmarked) [Compound C227, 3-(4-(5-(4-(1-(4-((5-bromo-4-((5-(dimethylphosphoryl)quinoxalin-6-yl)amino)pyrimidin-2-yl)amino)-5-methoxy-2-methylphenyl)piperidin-4-yl)piperazin-1-yl)pent-1-yn-1-yl)-1-oxoisoindolin-2-yl)piperidine-2,6-dione]
COc1cc(N2CCC3(CCN(CCCC#Cc4cccc5c4CN(C4CCC(=O)NC4=O)C5=O)CC3)CC2)c(C)cc1Nc1ncc(Br)c(Nc2ccc3nccnc3c2P(C)(C)=O)n1 (centres unmarked) [Compound C228, 3-(4-(5-(9-(4-((5-bromo-4-((5-(dimethylphosphoryl)quinoxalin-6-yl)amino)pyrimidin-2-yl)amino)-5-methoxy-2-methylphenyl)-3,9-diazaspiro[5.5]undecan-3-yl)pent-1-yn-1-yl)-1-oxoisoindolin-2-yl)piperidine-2,6-dione]
COc1cc(N2CCC(N3CCN(CCCCCC#Cc4cc(C#N)cc5c4CN(C4CCC(=O)NC4=O)C5=O)CC3)CC2)c(C)cc1Nc1ncc(Br)c(Nc2ccc3nccnc3c2P(C)(C)=O)n1 (centres unmarked) [Compound C229, 7-(7-(4-(1-(4-((5-bromo-4-((5-(dimethylphosphoryl)quinoxalin-6-yl)amino)pyrimidin-2-yl)amino)-5-methoxy-2-methylphenyl)piperidin-4-yl)piperazin-1-yl)hept-1-yn-1-yl)-2-(2,6-dioxopiperidin-3-yl)-3-oxoisoindoline-5-carbonitrile]
COc1cc(N2CCC(N3CCN(CCCCc4ccc(-c5ccc6c(c5)CN(C5CCC(=O)NC5=O)C6=O)cc4)CC3)CC2)ccc1Nc1ncc(Cl)c(Nc2ccccc2P(C)(C)=O)n1 (centres unmarked) [Compound C236, 3-(5-(4-(4-(4-(1-(4-((5-chloro-4-((2-(dimethylphosphoryl)phenyl)amino)pyrimidin-2-yl)amino)-3-methoxyphenyl)piperidin-4-yl)piperazin-1-yl)butyl)phenyl)-1-oxoisoindolin-2-yl)piperidine-2,6-dione]
COc1cc(N2CCC(N3CCN(CCCCCCc4cccc5c4CN(C4CCC(=O)NC4=O)C5=O)CC3)CC2)ccc1Nc1ncc(Cl)c(Nc2ccccc2P(C)(C)=O)n1 (centres unmarked) [Compound C238, 3-(4-(6-(4-(1-(4-((5-chloro-4-((2-(dimethylphosphoryl)phenyl)amino)pyrimidin-2-yl)amino)-3-methoxyphenyl)piperidin-4-yl)piperazin-1-yl)hexyl)-1-oxoisoindolin-2-yl)piperidine-2,6-dione]
COc1cc(N2CCC(N3CCN(CCCCCCCCc4cccc5c4CN(C4CCC(=O)NC4=O)C5=O)CC3)CC2)ccc1Nc1ncc(Cl)c(Nc2ccccc2P(C)(C)=O)n1 (centres unmarked) [Compound C240, 3-(4-(8-(4-(1-(4-((5-chloro-4-((2-(dimethylphosphoryl)phenyl)amino)pyrimidin-2-yl)amino)-3-methoxyphenyl)piperidin-4-yl)piperazin-1-yl)octyl)-1-oxoisoindolin-2-yl)piperidine-2,6-dione]
COc1cc(N2CCC(N3CCN(CCCCCC#Cc4ccc(F)c5c4CN(C4CCC(=O)NC4=O)C5=O)CC3)CC2)ccc1Nc1ncc(Cl)c(Nc2ccccc2P(C)(C)=O)n1 (centres unmarked) [Compound C243, 3-(4-(7-(4-(1-(4-((5-chloro-4-((2-(dimethylphosphoryl)phenyl)amino)pyrimidin-2-yl)amino)-3-methoxyphenyl)piperidin-4-yl)piperazin-1-yl)hept-1-yn-1-yl)-7-fluoro-1-oxoisoindolin-2-yl)piperidine-2,6-dione]
COc1cc(N2CCC(N3CCN(CCCCCCCc4cccc5c4CN(C4CCC(=O)NC4=O)C5=O)CC3)CC2)ccc1Nc1ncc(Cl)c(Nc2ccccc2P(C)(C)=O)n1 (centres unmarked) [Compound C245, 3-(4-(7-(4-(1-(4-((5-chloro-4-((2-(dimethylphosphoryl)phenyl)amino)pyrimidin-2-yl)amino)-3-methoxyphenyl)piperidin-4-yl)piperazin-1-yl)heptyl)-1-oxoisoindolin-2-yl)piperidine-2,6-dione]
COc1cc(N2CCC(N3CCN(CCCC#Cc4cc(C#N)cc5c4CN(C4CCC(=O)NC4=O)C5=O)CC3)CC2)ccc1Nc1ncc(Cl)c(Nc2ccccc2P(C)(C)=O)n1 (centres unmarked) [Compound C258, 7-(5-(4-(1-(4-((5-chloro-4-((2-(dimethylphosphoryl)phenyl)amino)pyrimidin-2-yl)amino)-3-methoxyphenyl)piperidin-4-yl)piperazin-1-yl)pent-1-yn-1-yl)-2-(2,6-dioxopiperidin-3-yl)-3-oxoisoindoline-5-carbonitrile]
COc1cc(N2CCC(N3CCN(CCCCC#Cc4cc(C#N)cc5c4CN(C4CCC(=O)NC4=O)C5=O)CC3)CC2)ccc1Nc1ncc(Cl)c(Nc2ccccc2P(C)(C)=O)n1 (centres unmarked) [Compound C259, 7-(6-(4-(1-(4-((5-chloro-4-((2-(dimethylphosphoryl)phenyl)amino)pyrimidin-2-yl)amino)-3-methoxyphenyl)piperidin-4-yl)piperazin-1-yl)hex-1-yn-1-yl)-2-(2,6-dioxopiperidin-3-yl)-3-oxoisoindoline-5-carbonitrile]
COc1cc(N2CCC(N3CCN(CCCCCC#Cc4cc(C(F)(F)F)cc5c4CN(C4CCC(=O)NC4=O)C5=O)CC3)CC2)ccc1Nc1ncc(Cl)c(Nc2ccccc2P(C)(C)=O)n1 (centres unmarked) [Compound C267, 3-(4-(7-(4-(1-(4-((5-chloro-4-((2-(dimethylphosphoryl)phenyl)amino)pyrimidin-2-yl)amino)-3-methoxyphenyl)piperidin-4-yl)piperazin-1-yl)hept-1-yn-1-yl)-1-oxo-6-(trifluoromethyl)isoindolin-2-yl)piperidine-2,6-dione]
COc1cc(N2CCC(N3CCN(CCCCC#Cc4cc(C(F)(F)F)cc5c4CN(C4CCC(=O)NC4=O)C5=O)CC3)CC2)ccc1Nc1ncc(Cl)c(Nc2ccccc2P(C)(C)=O)n1 (centres unmarked) [Compound C268, 3-(4-(6-(4-(1-(4-((5-chloro-4-((2-(dimethylphosphoryl)phenyl)amino)pyrimidin-2-yl)amino)-3-methoxyphenyl)piperidin-4-yl)piperazin-1-yl)hex-1-yn-1-yl)-1-oxo-6-(trifluoromethyl)isoindolin-2-yl)piperidine-2,6-dione]
COc1cc(N2CCC(N3CCN(CCCC#Cc4cc(C(F)(F)F)cc5c4CN(C4CCC(=O)NC4=O)C5=O)CC3)CC2)ccc1Nc1ncc(Cl)c(Nc2ccccc2P(C)(C)=O)n1 (centres unmarked) [Compound C269, 3-(4-(5-(4-(1-(4-((5-chloro-4-((2-(dimethylphosphoryl)phenyl)amino)pyrimidin-2-yl)amino)-3-methoxyphenyl)piperidin-4-yl)piperazin-1-yl)pent-1-yn-1-yl)-1-oxo-6-(trifluoromethyl)isoindolin-2-yl)piperidine-2,6-dione]
